Source: paper PMC10771590, “Pathway crosstalk between the central metabolic and heme biosynthetic pathways in Phanerochaete chrysosporium” (Applied Microbiology and Biotechnology, 2024)

Assays:
[1] = target: T1, recombinant PcGAPDH (rPcGAPDH) (Phanerodontia chrysosporium, UniProt Q01982); assay: GAPDH assay and steady-state kinetic analysis; type: biochemical, Phanerochaete chrysosporium; settings: rPcGAPDH
T1 construct: 6xHis-tag (pET-30) (cleaved yes); made in house; host or cells: E. coli BL21(DE3)pLysS
Method: GAPDH assay was performed as previously described (Campanale et al. [2003]). For steady-state kinetic analysis, the reaction mixture (1 ml) contained 40 mM phosphate (pH 7.6), 5.2 μg recombinant PcGAPDH (rPcGAPDH), 40 mM triethanolamine, 5 mM NAD^+, and 0.6–2 mM glyceraldehyde 3-phosphate (GAP3). Reactions were monitored by the increase in absorbance at 340 nm (ε 6220 M^–1 cm^–1) for 1 min, and initial velocities were determined. Inhibitory experiments were done in the presence of 0–2.5 μM hemin. To examine the effect of hemin on GAPDH kinetics, PcGAPDH was incubated with either buffer (control) or hemin for 5 min prior to initiating the reaction. Kinetic parameters were determined from Lineweaver–Burk plots, and Ki values were determined from the secondary plot of each slope of the Lineweaver–Burk plots. Immediately prior to use, hemin was dissolved at 10 mM in 0.1 M NaOH and diluted with 40 mM Tris–HCl (pH 7.5).
Fig. 2 Heterologous expression of PcGAPDH and inhibitory effect of hemin on GAPDH reaction. A M, molecular weight marker; lane 1, rPcGAPDH-His-tag; lane 2, His-tag-cleaved rPcGAPDH. B Reaction mixtures containing 2.5 nM rPcGAPDH, 40 mM phosphate (pH 7.6), 40 mM triethanolamine, 5 mM NAD^+, and 0.6–2 mM GAP3. […] Inset: secondary plots of each slope of Lineweaver–Burk plots against the concentration of hemin for determining inhibition constants. C Reaction mixtures containing 2.5 nM rPcGAPDH, 40 mM phosphate (pH 7.6), 40 mM triethanolamine, 5 mM NAD^+, and 0.6 mM GAP3. Reactions were started by adding substrates followed by 5-min incubation with either buffer or 1 μM inhibitor (hemin or protoporphyrin IX, PPIX). […] All experiments were performed in triplicate. Bars indicated as mean values ± standard deviation (error bars)

P. chrysosporium = assay: Growth of P. chrysosporium with exogenously added hemin; type: cell-based, Phanerochaete chrysosporium
Method: P. chrysosporium (ATCC 34541) was grown from conidial inocula at 37 °C in a stationary culture (20-ml medium in a 200-ml Erlenmeyer flask). The medium (pH 4.5) used in this study was a ligninolytic medium as previously described (Shimizu et al. [2005]; Kirk et al. [1978]), with 1% glucose as carbon source and 1.2 mM ammonium tartrate as nitrogen source.
Taking these observations together, a metabolic “pathway crosstalk” is proposed and summarized in Scheme 1. In P. chrysosporium, heme plays an important role as a prosthetic molecule for many cellular processes, in particular, ligninolytic enzymes. Upon addition of exogenous aromatic compounds, fungal cellular metabolism was dramatically shifted from basic energy metabolism to “defensive” or “productive” metabolism. Glucose uptake and consumption and NADPH and succinyl-CoA production were activated in response to exogenous aromatic compounds. Furthermore, the heme synthetic pathway was activated (Shimizu et al. [2005]). Immediate activation of the heme synthesis against aromatics is crucial for the fungus to produce aromatics-degrading enzymes. On the other hand, free heme is highly toxic to the cell. Thus, metabolic overflow of heme biosynthesis causes highly stressful conditions in the mitochondria. The TCA cycle, including CS, is located in the mitochondrial matrix space (Mcalister-Henn and Small [1997]). […]

PcGAPDH = target: T2, PcGAPDH (Phanerodontia chrysosporium, UniProt Q01982); assay: Peroxidative activity of GAPDH–hemin complex (TMB oxidation); type: biochemical, Phanerochaete chrysosporium; settings: on binding PcGAPDH in vitro, 1:1 or 1:2 PcGAPDH:hemin, 100 μM H2O2
T2 construct: 6xHis-tag (pET-30) (cleaved yes); made in house; host or cells: E. coli BL21(DE3)pLysS
Method: Peroxidative activity of the PcGAPDH–hemin complex was investigated by using 3, 3′, 5, 5′-tetramethylbenzidine (TMB) as oxidation substrate. Before the assay, 100 μM PcGAPDH was incubated with hemin at 1:1 or 1:2 stoichiometry for 30 min at 4 °C in the dark. Reaction mixtures (1 ml) contained 40 mM Tris–HCl (pH 7.5), 125 μM TMB, 100 μM hydrogen peroxide, and 1 μM PcGAPDH with hemin at 1:1 or 1:2 stoichiometry. As a control, 1 or 2 μM hemin without PcGAPDH was used. The reaction was monitored at 655 nm upon the formation of benzidine cation radical for 1 min.
Fig. 6 Peroxidative activity of GAPDH–hemin complex. Peroxidative activity of GAPDH–hemin complex was investigated by using TMB as an oxidation substrate. Reaction mixtures contained 40 mM Tris/HCl (pH 7.5), 125 μM TMB, 100 μM hydrogen peroxide, 1 μM PcGAPDH with hemin at 1:1 (a) or 1:2 (b) stoichiometry. As a control, 1 (c) or 2 (d) μM hemin without PcGAPDH was used. The reaction was monitored at 655 nm for 1 min

T1 sequence (Q01982 whole entry): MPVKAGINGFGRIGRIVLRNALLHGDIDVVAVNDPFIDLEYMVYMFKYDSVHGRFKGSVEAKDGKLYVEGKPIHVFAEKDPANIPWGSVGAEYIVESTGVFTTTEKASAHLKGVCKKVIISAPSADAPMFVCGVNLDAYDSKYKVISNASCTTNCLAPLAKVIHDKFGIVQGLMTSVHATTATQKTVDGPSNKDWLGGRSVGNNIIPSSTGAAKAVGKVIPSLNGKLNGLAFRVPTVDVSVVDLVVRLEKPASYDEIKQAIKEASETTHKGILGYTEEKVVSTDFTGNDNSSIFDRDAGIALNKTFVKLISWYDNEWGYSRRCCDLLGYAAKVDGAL
T2 sequence (Q01982 whole entry): as above

C=CC1=C(C)c2cc3[nH]c(cc4nc(cc5[nH]c(cc1n2)c(C)c5CCC(=O)O)C(CCC(=O)O)=C4C)c(C)c3C=C.[Fe+3] [hemin]
inhibitory pattern (steady-state analysis) ([1]; GAP3 as variable substrate): mixed type | Ki ([1]; pH 7.6, 5 mM NAD+, 0.6–2 mM GAP3, 0–2.5 μM hemin, read-out: Ki (inhibition constant from secondary plot)): 1000 nM | growth of P. chrysosporium (P. chrysosporium; 1.0 μM hemin added to culture medium in the dark (data not shown)): completely shut down | growth of P. chrysosporium (P. chrysosporium; exogenous addition of hemin at sub-μM concentrations): completely shut down | TMB-oxidizing ability of heme (PcGAPDH): suppressed
